From PMC8512147, “Multifunctional Small Molecules as Potential Anti-Alzheimer’s Disease Agents” (Molecules, 2021)
Read-outs that look alike come from different tables or passages of the source. Each block holds one molecule with its values, some of them ahead of it.

Tests used:
[1] = set-up: method as in PMID 25994066; conditions: DPPH method; read-out: Radical Scavenging Activity (EC50); cited from earlier work
[2] = Radical scavenging activity, DPPH method; format: biochemical; conditions: MeOH, 30 min, r.t., mean ± SD of 3 independent experiments
Description: Commercial ferulic acid (FA) and all the newly synthesized compounds 1a–e were studied for their radical scavenging activity, following the protocol previously reported. The activity of each compound is expressed as EC50 and is related to its interaction with the free stable radical 2,2-diphenyl-1-picrylhydrazyl (DPPH•).
For the physicochemical and biological studies, analytical grade reagents and solvents were supplied by Sigma-Aldrich (St. Louis, MO, USA), Fluka (Buchs, Switzerland) and Acros (Geel, Belgium). They were used as received without any purification. The antioxidant activity assay was performed in a quartz cell of 1 cm path length with a Perkin-Elmer Lambda 35 UV–Vis spectrophotometer equipped with a temperature programmer PTP1+1 Peltier System (T = 25.0 ± 0.1 °C).
Compounds were evaluated for their radical scavenging activity by the Blois method using DPPH (2,2-diphenyl-1-picrylhydrazyl), a stable free-radical. It absorbs in methanol solution at 517–520 nm and it is a scavenger for other radicals converting itself in the reduced form DPPHH. The assay consists of preparing solutions of increasing concentration of each compound starting from a stock solution (2–3 × 10^−4 M), adding to them 2.5 mL DPPH (0.002% in MeOH, 50–100 µM) and the necessary volume of MeOH to reach the final volume 3.5 mL for each sample. The control sample was made up of DPPH and MeOH. Solutions were protected from light at r.t. for 30 min and then absorbance was measured at 517 nm with a Perkin Elmer Lambda 35 UV–Vis spectrophotometer, using methanolic solution as the blank in the other cell. All the studied compounds have good solubility in MeOH, so their solutions could be prepared. The assay was repeated three times for all compounds and the antioxidant activity, expressed as EC50, was calculated by Equation (1). %AA = ((ADPPH − Asample)/ADPPH) × 100,(1)

Aβ1–42 peptide [3] = biological target: T1, Aβ1–42 peptide (Homo sapiens, UniProt P05067); test: Inhibition of self-mediated Aβ1–42 aggregation, Thioflavin T fluorescence assay; format: biochemical; set-up: Amyloid-β peptide (1–42) was purchased from GeneCust; purchased GeneCust; conditions: read-out: Inhibition of Aβ1–42 Aggregation (%) Self-Aβ Aggr.
T1 sequence (P05067 672-713): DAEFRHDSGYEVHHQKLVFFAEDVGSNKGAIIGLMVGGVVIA
Method: (§1) The studied compounds (1a–e) were tested in vitro to evaluate their activity as inhibitors of Aβ1-42 peptide aggregation, through the Thioflavin T (ThT) fluorescence assay. This method is based on the strong ability of the dye ThT to bind β-amyloid fibrils and oligomers through ionic and hydrophobic interactions, while its interaction with β-amyloid monomers is extremely weak. The intercalation of compounds in the β-sheet structure of amyloid protein may prevent fibrils aggregation and ThT binding, and it is evaluated by fluorimetry. The fluorescence emission measurements were performed after overnight incubation of the self-mediated or Cu^2+-induced Aβ fibril aggregates with the studied compounds.
(§2) The inhibition of β-amyloid (Aβ) aggregation was studied through the Th-T fluorescence assay, which was performed using a Varian Cary Eclipse fluorimeter at the following wavelengths: excitation (446 nm) and emission (485 nm). Amyloid-β peptide (1–42) was purchased from GeneCust as lyophilized powder stored at −20 °C.
(§3) The method used is based on thioflavin T (ThT) fluorescence emission, which depends on the interaction of this dye with Aβ fibrils. The assay is performed with the Aβ1–42 peptide sample, which was previously prepared by solubilization of its lyophilized powder in 1,1,1,3,3,3–hexafluoro-2-propanol (HFIP), an organic solvent useful to solubilize and monomerize the β-sheets protein aggregates. After 24 h, the solution was divided into Eppendorf tubes kept in ice, and then, HFIP was left to evaporate overnight (T = 25 °C). The resultant films were stored in the freezer. […] Compounds were dissolved in MeOH (1 mg/mL) and diluted with phosphate buffer to reach a ligand stock solution of 480 μM. Two different types of experiments were prepared in a final volume of 60 μL: control ligand assays (Aβ1–42 aggregation in the absence of inhibitor) and ligand assays (effect of ligand on Aβ1–42 aggregation). For each experiment, a blank sample without Aβ1–42 was used to monitor the effect of the compounds in fluorescence. To study the inhibition of aggregation in the presence of Cu^2+, which is known to promote it, an intermediate stock solution of CuCl2 in phosphate buffer (240 µM) was prepared. Then, it was aliquoted to obtain a final concentration of 40 µM in the samples. All samples were incubated in a water bath for 24 h at 37 °C. Then, 180 µL of ThT (5 µM) in glycine-NaOH buffer (50 mM, pH = 8.5) is added to each solution and 200 µL of it is placed in a 96-well plate (BD Falcon) to be read with the fluorimeter. After 5 min of incubation with ThT, fluorescence was measured at 446 nm (ʎ excitation) and 485 nm (ʎ emission).

Aβ1–42 peptide [4] = biological target: T1, Aβ1–42 peptide; test: Inhibition of Cu^2+-induced Aβ1–42 aggregation, Thioflavin T fluorescence assay; format: biochemical; set-up: Amyloid-β peptide (1–42) was purchased from GeneCust; purchased GeneCust; conditions: compounds 80 μM, with copper 40 μM; ThT fluorescence; mean of two independent measurements in duplicate; read-out: Inhibition of Aβ1–42 Aggregation (%) Cu-Induced Aβ Aggr.
Method: as §1, §2, §3

[5] = Fe^3+ complexation, potentiometric / spectrophotometric titration; format: physicochemical
Description: (§4) The chelating ability of FA and of selected compounds 1a and 1d was studied by using the same experimental techniques (potentiometry, UV–Vis spectrophotometry) and experimental medium used for the titration of the ligand alone (20% w/w DMSO/water).
(§5) Alterations in the deprotonation profiles of the ligand titration curves due to the presence of the metal ions are evident in Figure 2, since the curves for the M/L systems appear well below that of FA for a > −1 (M = Fe) or a > 0 (M = Cu). This evidence supports the formation of metal complexes with the deprotonated (L^−) and mono-protonated (HL) forms of the ligand, whose stability order (Fe > Cu) follows the expected trend. Equilibrium models obtained from the fitting analysis of the potentiometric curves (M = Fe, Cu) and the UV–Vis spectral data (M = Fe, Cu) are reported in Table 2.
(§6) Both compounds 1a and 1d have similar chelating capacities towards iron and copper, which are also analogous to those of FA.
(§7) As concerns the metal chelation studies, potassium hydrogen phthalate (C8H5KO4, p.a.) was acquired from BDH, whereas dimethylsulfoxide (DMSO, dried, p.a.) and potassium chloride (KCl, p.a.) were supplied by Sigma-Aldrich. Aqueous solutions of metal ions were prepared starting from 1000 ppm standards (Titrisol, Sigma-Aldrich), to obtain solutions FeCl3 0.018 M and CuCl2 0.015 M. The metal content of solutions was evaluated by atomic absorption. Iron stock solution was prepared with an excess of acid chloride to avoid hydrolysis and its concentration in HCl was determined by the usual standard-addition method using 0.1M HCl (Titrisol). The 0.1M HCl solution, used in calibration of the glass electrode and in spectrophotometric titrations, was prepared from a Titrisol ampoule. The titrant was prepared from carbonate free commercial concentrate (Titrisol, KOH 0.1 M ampoules). The KOH solution was standardized by titration with a solution of potassium hydrogen phthalate using Gran’s method and it was rejected when the percentage of carbonate was greater than 0.5% of the total amount of base. The potentiometric studies were performed with an automated potentiometric apparatus controlled by PASAT program and containing a Crison micropH 2002 millivoltmeter, a Crison microBu 2031 burette and a Haake thermostatic bath (T = 25.0 ± 0.1 °C). The spectrophotometric titrations were carried out with a Perkin-Elmer Lambda 35 spectrophotometer.
(§8) Both glass and Ag/AgCl reference electrodes were previously conditioned in different DMSO/H2O mixtures of increasing DMSO % concentration and the response of the glass electrode was evaluated by strong acid–strong base (HCl/KOH) calibrations with the determination of the Nernst parameters by Gran’s method. […] The spectrophotometric measurements were carried out in a 250–450 nm wavelength range at pH ca. 2.5–11.8. Under the stated experimental conditions, the pKw value (14.27) was determined and subsequently used in the computations. The stepwise protonation constants of the ligands, Ki = [HiL]/[Hi-1L][H], and the overall metal complex stability constants, β (MmHhLl) = [MmHhLl]/[M]^m[H]^h[L]^l, were calculated by fitting the pH-potentiometric and spectrophotometric data with, respectively, the Hyperquad 2008 [41] and Psequad programs. The metal hydrolysis model was determined under the defined experimental conditions (I = 0.1 M KCl, 20% w/w DMSO/H2O, T = 25.0 ± 0.1 °C) and the following values of stability constants were included in the fitting of experimental data towards the equilibrium models related to the Fe^3+/L and Cu^2+/L systems: log β (FeH-2) = −6.78, log β (FeH-3) = −10.78; log β (Cu2H-2) = −9.94. The species distribution curves were obtained with the Hyss program.

[6] = Cu^2+ complexation, potentiometric / spectrophotometric titration; format: physicochemical
Description: as §4, §5, §6, §7, §8

[7] = set-up: method as in doi:10.1039/C7NJ00661F, doi:10.1016/j.tca.2004.06.016, doi:10.1021/je101075q; conditions: aqueous medium and/or different ionic strength; cited from earlier work
Aβ1–42 peptide [8] = biological target: T1, Aβ1–42 peptide; conditions: cited from earlier work
[9] = compounds 80 μM, without copper, ThT fluorescence, mean of two independent measurements in duplicate
[10] = T = 25.0 ± 0.1 °C, I = 0.1 M KCl, 20% w/w DMSO/water, pH-potentiometric (FA), UV–Vis (1a, 1d)
[11] = T = 25.0 ± 0.1 °C, I = 0.1 M KCl, 20% w/w DMSO/water, pH-potentiometric data
[12] = pH 7.4, CL/CM = 10, CM = 10^−6 M

SMILES: O=C1O[C@H]([C@@H](O)CO)C(O)=C1O [Ascorbic acid]
EC50 [1]: 25 ± 1 µM

EC50 [2]: 40 ± 2 µM
melting point: 63 to 65 °C
inhibition at 80 µM (Aβ1–42 peptide [3]; [9]): 52.8%
inhibition at 80 µM (Aβ1–42 peptide [4]): 69.5%
SMILES: COc1cccc(CONC(=O)/C=C/c2ccc(O)c(OC)c2)c1 [Compound 1b, (E)-3-(4-hydroxy-3-methoxyphenyl)-N-((3-methoxybenzyl)oxy)acrylamide]

EC50 [2]: 34 ± 1 µM
melting point: 76 to 77 °C
inhibition at 80 µM (Aβ1–42 peptide [3]; [9]): 51%
inhibition at 80 µM (Aβ1–42 peptide [4]): 68.8%
SMILES: COc1cc(/C=C/C(=O)NOCc2ccccc2C(F)(F)F)ccc1O [Compound 1c, (E)-3-(4-hydroxy-3-methoxyphenyl)-N-((2-(trifluoromethyl)benzyl)oxy)acrylamide]

EC50 [2]: 32 ± 3 µM
melting point: 164.3 to 166.5 °C
inhibition at 80 µM (Aβ1–42 peptide [3]; [9]): 28.3%
inhibition at 80 µM (Aβ1–42 peptide [4]): 77%
SMILES: COc1cc(/C=C/C(=O)NOCc2ccc(Cl)cc2Cl)ccc1O [Compound 1e, (E)-N-((2,4-dichlorobenzyl)oxy)-3-(4-hydroxy-3-methoxyphenyl)acrylamide]

EC50 [2]: 36 ± 2 µM
log β (FemHhLl), species (1–22) ([5]; T = 25.0 ± 0.1 °C, I = 0.1 M KCl, 20% w/w DMSO/water): 7.81(8)
log β (FemHhLl), species (101) [5, 10]: 12.15(6)
log β (FemHhLl), species (102) [5, 10]: 20.31(6)
log β (FemHhLl), species (103) [5, 11]: 26.70(8)
pM (Fe^3+), pM = −log [M] [5, 12]: 17.4
free iron in the Fe^3+/L system ([5]; pH ca. 2, species distribution): ca. 90%
log β (CumHhLl), species (1–12) [6, 10]: 1.90(8)
log β (CumHhLl), species (101) [6, 10]: 6.52(8)
log β (CumHhLl), species (102) ([6]; T = 25.0 ± 0.1 °C, I = 0.1 M KCl, 20% w/w DMSO/water, pH-potentiometric (FA), UV–Vis (1d)): 11.14(6)
log β (CumHhLl), species (111) [6, 11]: 13.30(4)
pM (Cu^2+), pM = −log [M] [6, 12]: 6.2
SMILES: COc1cc(/C=C/C(=O)O)ccc1O [FA, (E)-4-hydroxy-3-methoxy cinnamic acid, reference compound]
log K1 previously reported [7]: 8.77–8.94
log K2 previously reported [7]: 4.46–4.56

SMILES: Nc1c2c(nc3ccccc13)CCCC2 [Tacrine, reference compound]
Inhibition of Aβ1–42 Aggregation (%) Self-Aβ Aggr. (Aβ1–42 peptide [8]): 22.8%
inhibition at 80 µM (Aβ1–42 peptide [3]): 21.5%
